The nature of data set [1]: Stability in Simulated Gastric Fluid (SGF). The class given is in vitro ADME. As to conditions: % remaining @ 1 h. Further details: key: % parent compound remaining relative to 0-minute sample. The procedure, abridged: (§1)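 Compound at 2 μg/mL final was incubated at 37° C with orbital shaking in SGF containing pepsin (pH 1.2) or SIF containing pancreatin (pH 6.8), sampled from 0 to 60 minutes. Parent remaining was measured by LC-MS/MS relative to the 0-minute sample; half-life came from ln(% remaining) versus time when enough points existed.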

The nature of data set [2]: Stability in Simulated Intestinal Fluid (SIF). As to conditions: % remaining @ 1 h. Further details: key: % parent compound remaining relative to 0-minute sample. It is filed as in vitro ADME. The procedure, abridged: as §1
Data set [3] is described as follows: Caco-2 Permeability Assay. The class given is in vitro ADME, human. As to conditions: human, Caco-2, pH 7.4. The procedure, abridged:
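Caco-2 monolayers cultured 21 days (TEER >600 […]); test article at 10 μM in HBSS/HEPES pH 7.4 transport medium, dosed apical or basolateral, ±Pgp inhibitor. Incubated 90 min at 37 °C; both compartments quantified by LC-MS/MS. Papp (A→B, B→A), efflux ratio and % recovery calculated.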

The nature of another data set: Plasma Stability. It is filed as in vitro ADME, human. As to conditions: % remaining @ 1 h. The procedure, abridged: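 Compounds incubated at 1 μM in fresh human plasma for 1 hour at 37° C, then protein-precipitated with acetonitrile/formic acid containing internal standard. Remaining parent measured by LC-MS/MS in triplicate, expressed as percent of control remaining.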

Bounds are passed on as bounds.

What is called Papp is a coefficient for how fast a substance crosses the barrier.

Turning to `CC(C)OCCn1c(=S)n(COC(=O)[C@H](C)N)c(=O)c2c1ccn2COC(=O)[C@H](C)N.O=C(O)C(F)(F)F.O=C(O)C(F)(F)F` [Example 289, bis(trifluoroacetic acid) [3-({[(2S)-2-aminopropanoyl]oxy}methyl)-4-oxo-1-[2-(propan-2-yloxy)ethyl]-2-sulfanylidene-1H,2H,3H,4H,5H-pyrrolo[3,2-d]pyrimidin-5-yl]methyl (2S)-2-aminopropanoate], the SGF in data set [1] is on record as 100% @ 1 h. In data set [2], the SIF is on record as 97% @ 1 h. This compound gave a Papp at 90 min, 10 µM in data set [3] below 0.366 ×10⁻⁶ cm/s. For the same compound, the “human Plasma stability” value in “Plasma Stability” was 39% @ 1 h.
Taken in the same sequence, the figures for `CC(C)OCCn1c(=S)[nH]c(=O)c2c1ccn2COC(=O)[C@@H](C)N.O=C(O)C(F)(F)F` [Example 292, trifluoroacetic acid {4-oxo-1-[2-(propan-2-yloxy)ethyl]-2-sulfanylidene-1H,2H,3H,4H,5H-pyrrolo[3,2-d]pyrimidin-5-yl}methyl (2R)-2-aminopropanoate] were 99% @ 1 h, 7% @ 1 h, below 1.06 ×10⁻⁶ cm/s and 20% @ 1 h.
Taken in the same sequence, the figures for `CC(C)OCCn1c(=S)n(COC(=O)[C@@H](C)N)c(=O)c2c1ccn2COC(=O)[C@@H](C)N.O=C(O)C(F)(F)F.O=C(O)C(F)(F)F` [Example 293, bis(trifluoroacetic acid) [3-({[(2R)-2-aminopropanoyl]oxy}methyl)-4-oxo-1-[2-(propan-2-yloxy)ethyl]-2-sulfanylidene-1H,2H,3H,4H,5H-pyrrolo[3,2-d]pyrimidin-5-yl]methyl (2R)-2-aminopropanoate] were 100% @ 1 h, 29% @ 1 h, below 1.06 ×10⁻⁶ cm/s and 25% @ 1 h.
On to `CC(C)OCCn1c(=S)[nH]c(=O)c2c1ccn2COC(=O)[C@@H](NC(=O)OC(C)(C)C)C(C)C` [Example 294, {4-oxo-1-[2-(propan-2-yloxy)ethyl]-2-sulfanylidene-1H,2H,3H,4H,5H-pyrrolo[3,2-d]pyrimidin-5-yl}methyl (2S)-2-{[(tert-butoxy)carbonyl]amino}-3-methylbutanoate], for which, in data set [1], the SGF is listed as 98% @ 1 h. Moreover, the SIF in data set [2] is recorded as 3% @ 1 h. The compound further had a Papp at 90 min, 10 µM in data set [3] of 26.8 ×10⁻⁶ cm/s. Further, the “human Plasma stability” value in the data set “Plasma Stability” came out at 98% @ 1 h.
As to `CC(C)OCCn1c(SCOC(=O)[C@@H](NC(=O)OC(C)(C)C)C(C)C)nc(=O)c2c1ccn2COC(=O)[C@@H](NC(=O)OC(C)(C)C)C(C)C` [Example 295, {[5-({[(2S)-2-{[(tert-butoxy)carbonyl]amino}-3-methylbutanoyl]oxy}methyl)-4-oxo-1-[2-(propan-2-yloxy)ethyl]-1H,4H,5H-pyrrolo[3,2-d]pyrimidin-2-yl]sulfanyl}methyl (2S)-2-{[(tert-butoxy)carbonyl]amino}-3-methylbutanoate], the SGF in data set [1] is recorded as 58% @ 1 h. Besides, in data set [2], the SIF is 0% @ 1 h. Moreover, in data set [3], the Papp at 90 min, 10 µM was 17 ×10⁻⁶ cm/s. Besides, the “human Plasma stability” value in “Plasma Stability” was 81% @ 1 h.
Taken in the same sequence, the figures for `CC(C)OCCn1c(=S)[nH]c(=O)c2c1ccn2COC(=O)[C@@H](N)C(C)C.O=C(O)C(F)(F)F` [Example 296, trifluoroacetic acid {4-oxo-1-[2-(propan-2-yloxy)ethyl]-2-sulfanylidene-1H,2H,3H,4H,5H-pyrrolo[3,2-d]pyrimidin-5-yl}methyl (2S)-2-amino-3-methylbutanoate] were 97% @ 1 h, 43% @ 1 h, 1.18 ×10⁻⁶ cm/s and 12% @ 1 h.
Take `CC(C)OCCn1c(=S)n(COC(=O)[C@@H](N)C(C)C)c(=O)c2c1ccn2COC(=O)[C@@H](N)C(C)C.O=C(O)C(F)(F)F.O=C(O)C(F)(F)F` [Example 297, bis(trifluoroacetic acid) [3-({[(2S)-2-amino-3-methylbutanoyl]oxy}methyl)-4-oxo-1-[2-(propan-2-yloxy)ethyl]-2-sulfanylidene-1H,2H,3H,4H,5H-pyrrolo[3,2-d]pyrimidin-5-yl]methyl (2S)-2-amino-3-methylbutanoate]: in data set [1], the SGF was 100% @ 1 h. The SIF in data set [2] is given as 6% @ 1 h. Besides, the Papp at 90 min, 10 µM in data set [3] is 0.462 ×10⁻⁶ cm/s. Further, the “human Plasma stability” value in the data set “Plasma Stability” was 6% @ 1 h.
As to `CC(C)OCCn1c(=S)[nH]c(=O)c2c1ccn2COC(=O)[C@H](NC(=O)OC(C)(C)C)C(C)C` [Example 298, {4-oxo-1-[2-(propan-2-yloxy)ethyl]-2-sulfanylidene-1H,2H,3H,4H,5H-pyrrolo[3,2-d]pyrimidin-5-yl}methyl (2R)-2-{[(tert-butoxy)carbonyl]amino}-3-methylbutanoate], the SGF in data set [1] is on record as 99% @ 1 h. In addition, the SIF in data set [2] is 59% @ 1 h. Besides, the Papp at 90 min, 10 µM in data set [3] amounted to 33.5 ×10⁻⁶ cm/s. For the same compound, in “Plasma Stability”, the “human Plasma stability” value is recorded as 99% @ 1 h.
For `CC(C)OCCn1c(SCOC(=O)[C@H](NC(=O)OC(C)(C)C)C(C)C)nc(=O)c2c1ccn2COC(=O)[C@H](NC(=O)OC(C)(C)C)C(C)C` [Example 299, {[5-({[(2R)-2-{[(tert-butoxy)carbonyl]amino}-3-methylbutanoyl]oxy}methyl)-4-oxo-1-[2-(propan-2-yloxy)ethyl]-1H,4H,5H-pyrrolo[3,2-d]pyrimidin-2-yl]sulfanyl}methyl (2R)-2-{[(tert-butoxy)carbonyl]amino}-3-methylbutanoate], the SGF in data set [1] is 54% @ 1 h. Besides, in data set [2], the SIF was 27% @ 1 h. Besides, the Papp at 90 min, 10 µM in data set [3] amounted to 15.8 ×10⁻⁶ cm/s. Further, the “human Plasma stability” value in the data set “Plasma Stability” turned out to be 94% @ 1 h.
Taken in the same sequence, the figures for `CC(C)OCCn1c(=S)[nH]c(=O)c2c1ccn2COC(=O)[C@H](N)C(C)C` [Example 300, trifluoroacetic acid {4-oxo-1-[2-(propan-2-yloxy)ethyl]-2-sulfanylidene-1H,2H,3H,4H,5H-pyrrolo[3,2-d]pyrimidin-5-yl}methyl (2R)-2-amino-3-methylbutanoate] were 100% @ 1 h, 70% @ 1 h, 12.9 ×10⁻⁶ cm/s and 2% @ 1 h.
Turning to `CC(C)OCCn1c(=S)n(COC(=O)[C@H](N)C(C)C)c(=O)c2c1ccn2COC(=O)[C@H](N)C(C)C.O=C(O)C(F)(F)F.O=C(O)C(F)(F)F` [Example 301, bis(trifluoroacetic acid) [3-({[(2R)-2-amino-3-methylbutanoyl]oxy}methyl)-4-oxo-1-[2-(propan-2-yloxy)ethyl]-2-sulfanylidene-1H,2H,3H,4H,5H-pyrrolo [3,2-d]pyrimidin-5-yl]methyl (2R)-2-amino-3-methylbutanoate], in data set [1], the SGF is reported as 97% @ 1 h. The SIF in data set [2] was 10% @ 1 h. For the same compound, the apparent permeability (Papp) at 90 min, 10 µM in data set [3] was found to be 1.72 ×10⁻⁶ cm/s. For the same compound, in “Plasma Stability”, the “human Plasma stability” value is 5% @ 1 h.
With `CC(C)OCCn1c(=S)[nH]c(=O)c2c1ccn2COC(=O)[C@H](Cc1ccccc1)NC(=O)OC(C)(C)C` [Example 302, {4-oxo-1-[2-(propan-2-yloxy)ethyl]-2-sulfanylidene-1H,2H,3H,4H,5H-pyrrolo[3,2-d]pyrimidin-5-yl}methyl (2S)-2-{[(tert-butoxy)carbonyl]amino}-3-phenylpropanoate], the SGF in data set [1] is 97% @ 1 h. In data set [2], the SIF is recorded as 5% @ 1 h. In data set [3], this compound yielded a Papp at 90 min, 10 µM of 4.48 ×10⁻⁶ cm/s. Also, in the data set “Plasma Stability”, the “human Plasma stability” value came to 67% @ 1 h.
In the case of `CC(C)OCCn1c(SCOC(=O)[C@H](Cc2ccccc2)NC(=O)OC(C)(C)C)nc(=O)c2c1ccn2COC(=O)[C@H](Cc1ccccc1)NC(=O)OC(C)(C)C` [Example 303, {[5-({[(2S)-2-{[(tert-butoxy)carbonyl]amino}-3-phenylpropanoyl]oxy}methyl)-4-oxo-1-[2-(propan-2-yloxy)ethyl]-1H,4H,5H-pyrrolo[3,2-d]pyrimidin-2-yl]sulfanyl}methyl (2S)-2-{[(tert-butoxy)carbonyl]amino}-3-phenylpropanoate], the SGF in data set [1] is recorded as 46% @ 1 h. Besides, the SIF in data set [2] is 1% @ 1 h. The same compound showed a Papp at 90 min, 10 µM in data set [3] of 5.56 ×10⁻⁶ cm/s. For the same compound, the “human Plasma stability” value in “Plasma Stability” worked out at 28% @ 1 h.
As to `CC(C)OCCn1c(=S)n(COC(=O)[C@H](Cc2ccccc2)NC(=O)OC(C)(C)C)c(=O)c2c1ccn2COC(=O)[C@H](Cc1ccccc1)NC(=O)OC(C)(C)C` [Example 304, [3-({[(2S)-2-{[(tert-butoxy)carbonyl]amino}-3-phenylpropanoyl]oxy}methyl)-4-oxo-1-[2-(propan-2-yloxy)ethyl]-2-sulfanylidene-1H,2H,3H,4H,5H-pyrrolo[3,2-d]pyrimidin-5-yl]methyl (2S)-2-{[(tert-butoxy)carbonyl]amino}-3-phenylpropanoate], in data set [1], the SGF is 44% @ 1 h. Further, the SIF in data set [2] is on record as 67% @ 1 h. The compound further displayed a Papp at 90 min, 10 µM in data set [3] of 0.34 ×10⁻⁶ cm/s. Besides, in the data set “Plasma Stability”, the “human Plasma stability” value worked out at 99% @ 1 h.
For `CC(C)OCCn1c(=S)[nH]c(=O)c2c1ccn2COC(=O)[C@@H](Cc1ccccc1)NC(=O)OC(C)(C)C` [Example 305, {4-oxo-1-[2-(propan-2-yloxy)ethyl]-2-sulfanylidene-1H,2H,3H,4H,5H-pyrrolo [3,2-d]pyrimidin-5-yl}methyl (2R)-2-{[(tert-butoxy)carbonyl]amino}-3-phenylpropanoate], the SGF in data set [1] is recorded as 73% @ 1 h. In data set [2], the SIF is on record as 1% @ 1 h. The same compound had a Papp at 90 min, 10 µM in data set [3] of 3.84 ×10⁻⁶ cm/s. Besides, the “human Plasma stability” value in “Plasma Stability” amounted to 39% @ 1 h.

The values above are taken from US20240067651A1 (Biohaven Therapeutics Ltd., priority 2019, published 2024).
